Experiments:
Assay in all cases: cells
Assay type in all cases: functional, cell-based
PC-3 = details: Homo sapiens, PC-3, 72 h
Description: Antiproliferative activity against human PC-3 cells assessed as inhibition of cell growth incubated for 72 hrs by MTT assay

MDA-MB-231 = details: Homo sapiens, MDA-MB-231, 72 h
NCI-H1975 = details: Homo sapiens, NCI-H1975, 72 h
Description: Antiproliferative activity against human NCI-H1975 cells assessed as inhibition of cell growth incubated for 72 hrs by MTT assay

MGC-803 = details: Homo sapiens, MGC-803, 72 h
Description: Antiproliferative activity against human MGC-803 cells assessed as inhibition of cell growth incubated for 72 hrs by MTT assay

SMILES | IC50 (PC-3) | IC50 (MDA-MB-231) | IC50 (NCI-H1975) | IC50 (MGC-803)
C=CC(=O)Nc1cccc(NC(=O)CSc2nc(Nc3ccc(C(F)(F)F)cc3)c3ccccc3n2)c1 | 12.5 µM | 11.5 µM | 12.9 µM | 12.1 µM
O=C(CSc1nc(Nc2ccccc2)c2ccccc2n1)Nc1ccccc1F | 12.4 µM | > 50 µM | 9.35 µM | 10.7 µM
C=CC(=O)Nc1cccc(NC(=O)CSc2nc(Nc3cccc([N+](=O)[O-])c3)c3ccccc3n2)c1 | 46.3 µM | > 50 µM | 22.6 µM | > 50 µM
C=CC(=O)Nc1cccc(NC(=O)CSc2nc(Nc3ccc(CC)cc3)c3ccccc3n2)c1 | 24.3 µM | 14.4 µM | 8.27 µM | 8.01 µM
C=CC(=O)Nc1cccc(NC(=O)CSc2nc(Nc3ccccc3Br)c3ccccc3n2)c1 | 17.1 µM | 15.2 µM | 19.3 µM | 12.8 µM
O=C(CSc1nc(Nc2ccccc2)c2ccccc2n1)Nc1ccc(Br)cc1 | 8.45 µM | 11.5 µM | 10.6 µM | 19.3 µM
C=CC(=O)Nc1cccc(NC(=O)CSc2nc(Nc3cccc(Cl)c3)c3ccccc3n2)c1 | 12.3 µM | 16.3 µM | 9.46 µM | 7.83 µM
O=C(CSc1nc(Nc2ccccc2)c2ccccc2n1)Nc1ccc(F)c(Cl)c1 | 15.5 µM | 21.6 µM | 9.39 µM | 20.9 µM
O=C(CSc1nc(Nc2ccccc2)c2ccccc2n1)Nc1ccc(F)cc1 | 9.56 µM | 34.1 µM | 16.5 µM | > 50 µM
O=C(CSc1nc(Nc2ccccc2)c2ccccc2n1)Nc1cccc(Br)c1 | 11.4 µM | 17.5 µM | 10.1 µM | 9.62 µM
C=CC(=O)Nc1cccc(NC(=O)CSc2nc(Nc3ccc(F)c(Cl)c3)c3ccccc3n2)c1 | > 50 µM | 10.6 µM | > 50 µM | 7.85 µM
C=CC(=O)Nc1cccc(NC(=O)CSc2nc(Nc3ccc(Cl)cc3)c3ccccc3n2)c1 | 10.8 µM | 10.3 µM | 7.58 µM | 14.3 µM
C=CC(=O)Nc1cccc(NC(=O)CSc2nc(Nc3ccc(Cl)cc3Cl)c3ccccc3n2)c1 | 25.7 µM | 23.1 µM | 5.99 µM | 12.1 µM
O=C(CSc1nc(Nc2ccccc2)c2ccccc2n1)Nc1ccc(Cl)cc1Cl | 9.11 µM | 19.4 µM | 8.41 µM | 12.3 µM
C=CC(=O)Nc1cccc(NC(=O)CSc2nc(Nc3ccc(Br)cc3)c3ccccc3n2)c1 | 12.4 µM | 17.2 µM | 6.28 µM | 11.5 µM
O=C(CSc1nc(Nc2ccccc2)c2ccccc2n1)Nc1cccc([N+](=O)[O-])c1 | 11.8 µM | 33 µM | 17.9 µM | 28.1 µM
O=C(CSc1nc(Nc2ccccc2)c2ccccc2n1)Nc1ccc([N+](=O)[O-])cc1 | 25 µM | 16.8 µM | 13 µM | > 50 µM
O=C(CSc1nc(Nc2ccccc2)c2ccccc2n1)Nc1ccc(Cl)cc1 | 12.8 µM | 17.2 µM | 8.04 µM | 40.4 µM
C=CC(=O)Nc1cccc(NC(=O)CSc2nc(Nc3cccc(C)c3)c3ccccc3n2)c1 | 29.2 µM | 16.8 µM | 12.1 µM | 20.9 µM
C=CC(=O)Nc1cccc(NC(=O)CSc2nc(Nc3cccc(Br)c3)c3ccccc3n2)c1 | 15 µM | 19.4 µM | 12.1 µM | 11.9 µM
O=C(CSc1nc(Nc2ccccc2)c2ccccc2n1)Nc1ccc(C(F)(F)F)cc1 | 10.4 µM | 11.1 µM | 11.7 µM | 8.67 µM
O=C(CSc1nc(Nc2ccccc2)c2ccccc2n1)Nc1ccc(Cl)c(Cl)c1 | 12.1 µM | 14.5 µM | 10.4 µM | 37.9 µM
O=C(CSc1nc(Nc2ccccc2)c2ccccc2n1)Nc1cccc(Cl)c1 | 12.6 µM | 16.5 µM | 8.46 µM | 14.3 µM
C=CC(=O)Nc1cccc(NC(=O)CSc2nc(Nc3ccccc3Cl)c3ccccc3n2)c1 | 14.4 µM | 12.7 µM | 10 µM | 20.7 µM
CCc1ccc(NC(=O)CSc2nc(Nc3ccccc3)c3ccccc3n2)cc1 | 17.9 µM | 33.9 µM | 9.91 µM | > 50 µM
C=CC(=O)Nc1cccc(NC(=O)CSc2nc(Nc3cc(OC)c(OC)c(OC)c3)c3ccccc3n2)c1 | > 50 µM | > 50 µM | > 50 µM | > 50 µM

More lines, in order of falling IC50 (PC-3), values ahead:

IC50 (PC-3) | IC50 (MDA-MB-231) | IC50 (NCI-H1975) | IC50 (MGC-803) | SMILES
34.9 µM | 12.9 µM | 7.94 µM | 24.2 µM | C=CC(=O)Nc1cccc(NC(=O)CSc2nc(Nc3cccc(OC)c3)c3ccccc3n2)c1
27.6 µM | 17.7 µM | 19.1 µM | > 50 µM | C=CC(=O)Nc1cccc(NC(=O)CSc2nc(Nc3ccc(Cl)c(Cl)c3)c3ccccc3n2)c1
23.2 µM | 20.4 µM | 9.92 µM | 30.2 µM | C=CC(=O)Nc1cccc(NC(=O)CSc2nc(Nc3ccccc3C)c3ccccc3n2)c1
19.8 µM | 14.1 µM | 10.3 µM | 18.6 µM | O=C(CSc1nc(Nc2ccccc2)c2ccccc2n1)Nc1ccccc1Br
15.6 µM | > 50 µM | 6.79 µM | 12.7 µM | O=C(CSc1nc(Nc2ccccc2)c2ccccc2n1)Nc1cccc(F)c1
14.6 µM | 24.4 µM | 9.61 µM | 24.8 µM | O=C(CSc1nc(Nc2ccccc2)c2ccccc2n1)Nc1ccccc1Cl
11.6 µM | 21.7 µM | 19.4 µM | 10 µM | COc1cccc(NC(=O)CSc2nc(Nc3ccccc3)c3ccccc3n2)c1
11 µM | 12.4 µM | 12 µM | 15.8 µM | CCc1cccc(NC(=O)CSc2nc(Nc3ccccc3)c3ccccc3n2)c1
9.34 µM | 18.7 µM | 6.58 µM | 26.1 µM | C=CC(=O)Nc1cccc(NC(=O)CSc2nc(Nc3ccccc3F)c3ccccc3n2)c1
8.74 µM | 10.2 µM | 8.12 µM | 7.31 µM | C=CC(=O)Nc1cccc(NC(=O)CSc2nc(Nc3ccccc3)c3ccccc3n2)c1
8.24 µM | 9.49 µM | 4.43 µM | 8.29 µM | C=CC(=O)Nc1cccc(NC(=O)CSc2nc(Nc3ccc(F)cc3)c3ccccc3n2)c1
